From EP4721767A1 (priority 2023, dated 2024)

Columns and labels:
[1] = tested on: KB oral epithelial cancer cells; test: Cell killing activity of camptothecins (CCK-8); format: cell-based; conditions: killing 4 days
Description: (§1) KB oral epithelial cancer cells (purchased from: ATCC) were cultured in DMEM medium supplemented with 10% FBS; NCI-N87 human gastric cancer cells (purchased from: ATCC) were cultured in RPMI1640 medium supplemented with 10% FBS; HT29 human colon cancer cells (purchased from: ATCC) were cultured in RPMI1640 medium supplemented with 10% FBS; and BxPC-3 human pancreatic adenocarcinoma cells (purchased from: ATCC) were cultured in RPMI1640 medium supplemented with 10% FBS.
(§2) Using corresponding media described above and in cell plates, the density of KB cells was adjusted to 2×10^4/mL; the density of NCI-N87 cells was adjusted to 5×10^4/mL; the density of HT29 cells was adjusted to 5×10^4/mL, and the cells were plated onto 96-well transparent flat bottom plates, at 100 µL/well, and cultured overnight; and the density of BxPC-3 cells was adjusted to 5×10^4/mL.
(§3) Samples to be detected were diluted to 20 µM with corresponding media, then 5-fold gradient dilution was performed, and 9 concentrations were obtained. A well having cells but with no any sample added was set as the well showing maximum cell growth; and a well having no cells was set as the well of medium background. The diluted samples were added into the cell plates, at 100 µL/well, which were then incubated in a CO2 incubator for 96 hours. After the incubation, CCK-8 (purchased from: DOJINDO LABORATORIES) prepared beforehand was added into the plates, at 20 µL/well, and after further 3 hours of incubation in the CO2 incubator, OD values at 450 nm were read on a microplate reader.
(§4) Data obtained was fitted to a four-parameter curve using software Prism7, and equation for calculating maximum killing is: maximum killing (%) = 1 - (OD450 value of the well showing maximum killing - OD450 value of the well of medium background) / (OD450 value of the well showing maximum cell growth - OD450 value of the cell of medium background) × 100%. Table 6. Results of comparative study on the activity of camptothecins

[2] = tested on: HT29 human colon cancer cells; test: Cell killing activity of camptothecins (CCK-8); format: cell-based; conditions: HT29, killing 4 days
Description: as §1, §2, §3, §4

Calu-6 = test: Proliferation-inhibiting effect on tumor cells (SRB / MTT); format: cell-based; conditions: Homo sapiens; Calu-6, 144 hours; read-out: IC50 (nM, mean ± SD)
Description: (§5) For cells growing by adherence, SRB assay was used to detect effect of antibody-drug conjugates, antibodies, or camptothecins on the proliferation of tumor cells in vitro cultured. A certain number of cells in exponential growth phase were inoculated in 96-well cell culture plates, and when the cells grew by adherence overnight, antibody drug conjugates, antibodies, or camptothecins of different concentrations were added into the cells. 144 hours of incubation later, the cells were fixed with trichloroacetic acid, and then stained with SRB (prepared in 1% glacial acetic acid at a concentration of 4 mg/mL). 10 mM Tris solution was added into each well to solubilize the bound SRB. OD values at 510 nm were read on a microplate reader. [formula]
(§6) For cells growing in suspension, MTT assay was used to detect effect of antibody-drug conjugates, antibodies, or camptothecins on the proliferation of tumor cells in vitro cultured. A certain number of cells in exponential growth phase were inoculated in 96-well cell culture plates, and when the cells grew in suspension overnight, antibody-drug conjugates, antibodies, or camptothecins of different concentrations were added into the cells. 144 hours of incubation later, MTT was added to each well of the plates, and the incubation was continued for 4 hours at 37 °C in a 5% CO2 saturated humidity incubator. Next, 100 µL of SDS-isobutanol-HCl solution was added into each well of the plates, and OD values at 570 nm and 690 nm were read on a microplate reader.
(§7) Half maximal inhibitory concentration (IC50) was calculated from the inhibition (%) at those different concentrations using the software Graphpad Prism 8.0. The experiment was repeated once and the data was expressed as mean ± SD, and a plot of log(concentration) versus inhibition was generated. Table 10. Results of the proliferation-inhibiting effect of ADCs targeting B7-H3 on different tumor cells

HT-29 = test: as above; format: cell-based; conditions: Homo sapiens; HT-29, 144 hours; read-out: IC50 (nM, mean ± SD)
Description: as §5, §6, §7

MC38 = test: as above; format: cell-based; conditions: Mus musculus, MC-38; MC38, 144 hours; read-out: IC50 (nM, mean ± SD)
Description: as §5, §6, §7

SK-OV-3 = test: as above; format: cell-based; conditions: Homo sapiens; SK-OV-3, 144 hours; read-out: IC50 (nM, mean ± SD)
Description: as §5, §6, §7

BxPC-3 = test: as above; format: cell-based; conditions: Homo sapiens; BxPC-3, 144 hours; read-out: IC50 (nM, mean ± SD)
Description: as §5, §6, §7

PANC 05.04 = test: as above; format: cell-based; conditions: Homo sapiens; PANC 05.04, 144 hours; read-out: IC50 (nM, mean ± SD)
Description: as §5, §6, §7

HCT-116 = test: as above; format: cell-based; conditions: Homo sapiens; HCT-116, 144 hours; read-out: IC50 (nM, mean ± SD)
Description: as §5, §6, §7

U-87 MG = test: as above; format: cell-based; conditions: Homo sapiens, 144 hours, read-out: IC50 (nM, mean ± SD)
Description: as §5, §6, §7

PANC-1 = test: as above; format: cell-based; conditions: Homo sapiens; PANC-1, 144 hours; read-out: IC50 (nM, mean ± SD)
Description: as §5, §6, §7

NCI-N87 = test: as above; format: cell-based; conditions: Homo sapiens; NCI-N87, 144 hours; read-out: IC50 (nM, mean ± SD)
Description: as §5, §6, §7

MDA-MB-231 = test: as above; format: cell-based; conditions: Homo sapiens; MDA-MB-231, 144 hours; read-out: IC50 (nM, mean ± SD)
Description: as §5, §6, §7

Calu-3 = test: as above; format: cell-based; conditions: Homo sapiens; Calu-3, 144 hours; read-out: IC50 (nM, mean ± SD)
Description: as §5, §6, §7

ES-2 = test: as above; format: cell-based; conditions: Homo sapiens; ES-2, 144 hours; read-out: IC50 (nM, mean ± SD)
Description: as §5, §6, §7

MC38/B7H3 = test: as above; format: cell-based; conditions: Mus musculus, MC-38; MC38/B7H3, 144 hours; read-out: IC50 (nM, mean ± SD)
Description: as §5, §6, §7

SW626 = test: as above; format: cell-based; conditions: Homo sapiens; SW626, 144 hours; read-out: IC50 (nM, mean ± SD)
Description: as §5, §6, §7

MDA-MB-468 = test: as above; format: cell-based; conditions: Homo sapiens; MDA-MB-468, 144 hours; read-out: IC50 (nM, mean ± SD)
Description: as §5, §6, §7

[3] = Phase I, advanced solid tumors, reported 2021; cited from earlier work
[4] = molecular target: T1, human B7-H3 naturally expressed on the surface of SKOV3 cells (human) (UniProt Q5ZPR3); test: flow cytometry (MFI) on SKOV3 cells naturally expressing human B7-H3
T1 sequence (looked up): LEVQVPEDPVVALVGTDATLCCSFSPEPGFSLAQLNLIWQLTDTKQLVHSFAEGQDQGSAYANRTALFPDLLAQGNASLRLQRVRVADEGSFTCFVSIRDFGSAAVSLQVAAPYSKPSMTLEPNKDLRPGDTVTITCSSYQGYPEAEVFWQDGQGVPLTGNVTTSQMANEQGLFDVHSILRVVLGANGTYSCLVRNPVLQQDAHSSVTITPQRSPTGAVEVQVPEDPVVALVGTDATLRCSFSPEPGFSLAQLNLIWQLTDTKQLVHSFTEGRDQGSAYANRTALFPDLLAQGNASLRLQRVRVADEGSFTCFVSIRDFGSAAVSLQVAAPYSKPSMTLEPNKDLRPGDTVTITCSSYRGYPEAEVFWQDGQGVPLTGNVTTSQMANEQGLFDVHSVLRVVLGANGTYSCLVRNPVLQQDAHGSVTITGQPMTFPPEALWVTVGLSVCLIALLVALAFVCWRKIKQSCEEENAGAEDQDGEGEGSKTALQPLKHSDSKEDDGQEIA

[5] = molecular target: T2, Recombinant human B7-H3 extracellular domain protein (UniProtKB-Q5ZPR3, amino acids 1-461, C-His tag) (human) (UniProt Q5ZPR3); test: BLI (ForteBio Octet QKe), antibody on AHC probes, 60 nM antigen, 1:1 Langmuir fit
T2 sequence (looked up): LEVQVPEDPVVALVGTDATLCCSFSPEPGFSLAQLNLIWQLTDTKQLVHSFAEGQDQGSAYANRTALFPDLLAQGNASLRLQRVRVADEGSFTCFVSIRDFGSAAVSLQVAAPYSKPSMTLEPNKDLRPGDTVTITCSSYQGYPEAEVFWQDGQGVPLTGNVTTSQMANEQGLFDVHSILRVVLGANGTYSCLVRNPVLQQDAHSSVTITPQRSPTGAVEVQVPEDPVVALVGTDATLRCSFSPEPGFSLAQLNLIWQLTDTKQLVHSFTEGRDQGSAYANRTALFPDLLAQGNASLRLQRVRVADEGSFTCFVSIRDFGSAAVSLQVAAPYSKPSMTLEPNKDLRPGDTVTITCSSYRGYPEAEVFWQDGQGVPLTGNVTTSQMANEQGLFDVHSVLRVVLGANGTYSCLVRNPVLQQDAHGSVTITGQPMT

With CC[C@@]1(O)C(=O)OCc2c1cc1n(c2=O)Cc2c-1nc1ccc(N)c3c1c2C(F)(F)CC3 [Compound 3] the EC50 ([1]; 96 h) was 7.47 nM, the “Maximum Killing (%)” value [1] was 95.6% and the “Maximum Killing (%)” value [2] was 90.6%. The EC50 ([2]; Homo sapiens, HT-29, 96 h) was 6.04 nM, the IC50 (Calu-6) was 0.25 ± 0.06 nM and the IC50 (HT-29) was 0.62 nM. For the same molecule, the IC50 (MC38) was 3.27 ± 0.75 nM, the IC50 (SK-OV-3) was 1.05 ± 0.48 nM and the IC50 (BxPC-3) was 0.26 ± 0.09 nM. For the same molecule, the IC50 (PANC 05.04) was 0.35 ± 0.19 nM, the IC50 (HCT-116) was 0.3 nM and the IC50 (U-87 MG) was 3.72 ± 0.01 nM. For the same molecule, the IC50 (PANC-1) was 0.82 ± 0.16 nM, the IC50 (NCI-N87) was 1.26 ± 0.13 nM and the IC50 (MDA-MB-231) was 0.59 ± 0.03 nM. For the same molecule, the IC50 (Calu-3) was 0.44 ± 0.1 nM, the IC50 (ES-2) was 0.21 ± 0.08 nM and the IC50 (MC38/B7H3) was 4.67 ± 1.98 nM. The IC50 (SW626) was 3.08 ± 0.63 nM and the IC50 (MDA-MB-468) was 0.21 ± 0.11 nM.

B1: MGC018: MacroGenics ADC: anti-B7-H3 humanized IgG1 monoclonal antibody conjugated to Duocarmycin (DUBA) via a cleavable linker, average DAR 2.7 (conjugate, chains of the INN, looked up)
VH: EVQLVESGGGLVKPGGSLRLSCAASGFTFSSYGMSWVRQAPGKGLEWVATINSGGSNTYYPDSLKGRFTISRDNAKNSLYLQMNSLRAEDTAVYYCARHDGGAMDYWGQGTTVTVSS
VL: DIQMTQSPSSLSASVGDRVTITCRASESIYSYLAWYQQKPGKAPKLLVYNTKTLPEGVPSRFSGSGSGTDFTLTISSLQPEDFATYYCQHHYGTPPWTFGQGTRLEIK
modifications: duocarmycin (DUBA) payload, cleavable linker, DAR 2.7
In the case of B1, the “Grade 3 and higher treatment-related adverse events (TRAEs)” value [3] is listed as 50%, the “patients with Grade 3 and higher treatment-related adverse events (TRAEs)” value [3] is listed as 43 patients and the “severe TRAE neutropenia” value [3] is listed as 22.1%. For the same molecule, the “severe TRAE thrombocytopenia” value [3] was 7%.

B2: Control antibody hum30 (antibody, from another filing, V domains shown)
VH: QVQLVQSGAEVKKPGSSVKVSCKASGYTFTNYVMHWVRQAPGQGLEWMGYINPYNDDVKYNEKFKGRVTITADESTSTAYMELSSLRSEDTAVYYCARWGYYGSPLYYFDYWGQGTLVTVSS
VL: EIVLTQSPATLSLSPGERATLSCRASSRLIYMHWYQQKPGQAPRPLIYATSNLASGIPARFSGSGSGTDFTLTISSLEPEDFAVYYCQQWNSNPPTFGQGTKVEIK
B2 gave an EC50 [4] of 1.22 nM, a Kd [5] of 0.344 nM and a koff [5] of 0.000324 s⁻¹. It also gave a kon [5] of 941000 M⁻¹ s⁻¹.
